In US20260001928A1 (CORTERIA PHARMACEUTICALS, priority 2022, published 2026):
*1 amine or outer side, *2 acyl side, *3 side chain or, on linkers, in order; H or OH if unused. Where a SMILES comes first, the peptide text is derived from it. Side-chain parts run from the residue outwards. [ ]: non-standard residue; d: D form. The star is where a group is joined. C20 diacid = O=C(O)CCCCCCCCCCCCCCCCCCC(=O)*; C16 diacid = O=C(O)CCCCCCCCCCCCCCC(=O)*; γGlu = O=C(O)[C@H](CCC(=O)[*:2])N[*:1]; Nva = CCC[C@H](N)C(=O)O; Pentanoyl = CCCCC(=O)*; Aib = CC(C)(N)C(=O)O

How the values were obtained:
human CRF2a receptor = target: T1, human CRF2a receptor (Homo sapiens, UniProt Q13324); experiment: Activity at human CRF2a receptor, cAMP functional assay in TeloHEAC cells; assay type: cell-based; settings: TeloHEAC cells stably expressing human CRF2a receptor, relative to urocortin 2 (100 nM = 100%)
T1 construct: expressed in transfected cells; host or cells: TeloHEAC cells
T1 sequence (Q13324 1-411): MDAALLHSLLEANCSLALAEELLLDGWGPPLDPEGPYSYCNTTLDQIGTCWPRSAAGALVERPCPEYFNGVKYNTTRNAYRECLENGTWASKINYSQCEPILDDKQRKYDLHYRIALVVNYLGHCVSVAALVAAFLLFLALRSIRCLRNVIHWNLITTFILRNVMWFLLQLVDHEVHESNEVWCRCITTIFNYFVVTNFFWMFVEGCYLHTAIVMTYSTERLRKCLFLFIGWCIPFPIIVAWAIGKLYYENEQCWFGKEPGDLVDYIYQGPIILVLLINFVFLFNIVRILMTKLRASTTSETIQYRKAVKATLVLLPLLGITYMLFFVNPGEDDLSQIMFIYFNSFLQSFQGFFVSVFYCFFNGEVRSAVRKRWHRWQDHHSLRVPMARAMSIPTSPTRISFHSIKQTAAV
How it was run: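 cAMP accumulation was measured by HTRF 665/620 nm ratio after 30 min at 37° C compound exposure (16 twofold dilutions) of CRF2a-expressing TeloHEAC cells, 10000/well, in HEPES-buffered HBSS plus IBMX. Activity was normalised to urocortin 2 at 100 nM (100%), and EC50 was the concentration giving half-maximal activation.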

CFR1R receptor = target: T2, CFR1R receptor (Homo sapiens, UniProt P34998); experiment: Activity at anti-target CFR1R receptor, cAMP assay in CRF1R-overexpression CHO-K1 cells; assay type: cell-based; settings: 100% = Sauvagine at 100 nM; for EC50: cAMP
T2 construct: host or cells: CHO-K1 (clone 2)
T2 sequence (P34998 24-415): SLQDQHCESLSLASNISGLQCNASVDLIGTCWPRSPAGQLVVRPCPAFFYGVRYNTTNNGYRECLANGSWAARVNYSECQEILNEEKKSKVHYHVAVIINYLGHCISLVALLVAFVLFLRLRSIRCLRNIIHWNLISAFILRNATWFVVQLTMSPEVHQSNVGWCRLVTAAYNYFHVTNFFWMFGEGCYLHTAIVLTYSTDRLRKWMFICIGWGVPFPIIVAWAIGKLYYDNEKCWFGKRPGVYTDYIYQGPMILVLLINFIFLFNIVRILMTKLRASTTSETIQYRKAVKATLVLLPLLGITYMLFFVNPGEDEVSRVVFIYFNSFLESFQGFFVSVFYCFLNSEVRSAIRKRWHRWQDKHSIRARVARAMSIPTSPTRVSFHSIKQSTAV
How it was run: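 The method mirrors that used with TeloHAEC cells. Here, thawed clone 2 cells seeded at 4000 cells/well are tested, and 100 nM Sauvagine sets the top of the activation scale.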

Sprague Dawley rats = experiment: Effect on systolic blood pressure, telemetry in Sprague Dawley rats; assay type: in vivo, rat; settings: 0.1 mg/kg SC; for Systolic blood pressure (Mean) % change from baseline, 8 h / Systolic blood pressure (Mean) % change from baseline, 12 h / Systolic blood pressure (Mean) % change from baseline, 24 h: n=2; for Duration of action: last time point with an effect on BP still observed
Method: The effect of the compounds on systolic blood pressure was determined in telemetry studies in Sprague Dawley rats at a dosage of 0.1 mg/kg SC.
The rats were previously implanted with a telemetry device (DSI, Saint-Paul, USA, HD-S10, HD-S11 or HD S21) and allowed to recover for a minimum period of 2 weeks before treatment with vehicle or the different peptides. Blood pressure (BP) was recorded through a catheter inserted into the abdominal aorta. The device body was placed in the abdomen. The animals were allowed to recover from surgery for at least 10 days before the first administration of test drug or vehicle.
The chronically instrumented rats of the telemetry studies were individually housed immediately after surgery and then housed in pairs with a non-instrumented companion after recovery.
Systolic blood pressure was recorded for one hour before treatment (basal period). Thereafter, the subcutaneous administration of the test compound or its vehicle was performed, under continuous recording of the signal up to 48 hours, analysed and expressed as % change from baseline.
Representative data are presented in Table 13 below, in which “Duration of action” indicates the last time point for which an effect on BP was still observed (n=2 animals/peptide)

CCC[C@H](NC(=O)[C@H](CC(N)=O)NC(=O)[C@@H](NC(=O)[C@H](CCC(=O)O)NC(=O)[C@H](C)NC(=O)[C@H](CCC(N)=O)NC(=O)[C@H](CCC(=O)O)NC(=O)[C@H](CCCNC(=N)N)NC(=O)[C@H](CCC(N)=O)NC(=O)[C@H](CCCCN)NC(=O)[C@H](CCCCN)NC(=O)[C@H](CCC(N)=O)NC(=O)[C@H](CCCCN)NC(=O)[C@H](CCC(=O)O)NC(=O)[C@H](CCC(N)=O)NC(=O)[C@H](CCC(=O)O)NC(=O)[C@H](CC(C)C)NC(=O)[C@H](CC(C)C)NC(=O)[C@@H](NC(=O)[C@H](CCCCN)NC(=O)[C@H](CCCCNC(=O)CC[C@H](NC(=O)CCCCCCCCCCCCCCC(=O)O)C(=O)O)NC(=O)[C@H](CC(C)C)NC(=O)[C@H](CCCCN)NC(=O)[C@@H](NC(=O)[C@@H]1CCCN1C(=O)[C@H](NC(=O)[C@H](CC(=O)O)NC(=O)[C@H](CC(C)C)NC(=O)[C@H](CO)NC(=O)[C@H](CC(C)C)NC(=O)[C@@H](NC(=O)[C@@H](NC(C)=O)[C@@H](C)CC)C(C)C)C(C)C)[C@@H](C)CC)[C@@H](C)CC)[C@@H](C)O)C(=O)N[C@@H](CCC(N)=O)C(=O)N[C@H](C(=O)N[C@@H](CC(C)C)C(=O)N[C@@H](C)C(=O)N[C@@H](CCC(N)=O)C(=O)N[C@H](C(N)=O)C(C)C)[C@@H](C)CC [compound 52] (Ac-IVLSLD[dV]PIKLK([γGlu-C16 diacid])KILLEQEKQKKQREQAETN[Nva]QILAQV-NH2)
EC50 (human CRF2a receptor): 0.17 nM
Emax (% I) (CFR1R receptor): 7 % I
EC50 (CFR1R receptor): > 250 nM
Systolic blood pressure (Mean) % change from baseline, 8 h (Sprague Dawley rats): −28%
Systolic blood pressure (Mean) % change from baseline, 12 h (Sprague Dawley rats): −17%
Systolic blood pressure (Mean) % change from baseline, 24 h (Sprague Dawley rats): 4%
Duration of action (Sprague Dawley rats): 23 h

CCCCC(=O)N[C@H](C(=O)N[C@@H](CC(C)C)C(=O)N[C@@H](CO)C(=O)N[C@@H](CC(C)C)C(=O)N[C@@H](CC(=O)O)C(=O)N[C@@H](C(=O)N1CCC[C@H]1C(=O)N[C@H](C(=O)N[C@@H](CCCCN)C(=O)N[C@@H](CC(C)C)C(=O)N[C@@H](CCCCNC(=O)CC[C@H](NC(=O)CCCCCCCCCCCCCCCCCCC(=O)O)C(=O)O)C(=O)N[C@@H](CCCCN)C(=O)N[C@H](C(=O)N[C@@H](CC(C)C)C(=O)N[C@@H](CC(C)C)C(=O)N[C@@H](CCC(=O)O)C(=O)N[C@@H](CCC(N)=O)C(=O)N[C@@H](CCC(=O)O)C(=O)N[C@@H](CCCCN)C(=O)N[C@@H](CCC(N)=O)C(=O)N[C@@H](CCCCN)C(=O)NC(C)(C)C(=O)N[C@@H](CCC(N)=O)C(=O)N[C@@H](CCCNC(=N)N)C(=O)N[C@@H](CCC(=O)O)C(=O)N[C@@H](CCC(N)=O)C(=O)N[C@@H](C)C(=O)N[C@@H](CCC(=O)O)C(=O)N[C@H](C(=O)N[C@@H](CC(N)=O)C(=O)NC(C)(C)C(=O)N[C@@H](CCC(N)=O)C(=O)N[C@H](C(=O)N[C@@H](CC(C)C)C(=O)N[C@@H](C)C(=O)N[C@@H](CCC(N)=O)C(=O)N[C@H](C(N)=O)C(C)C)[C@@H](C)CC)[C@@H](C)O)[C@@H](C)CC)[C@@H](C)CC)C(C)C)C(C)C [compound 220] (Pentanoyl-VLSLD[dV]PIKLK([γGlu-C20 diacid])KILLEQEKQK[Aib]QREQAETN[Aib]QILAQV-NH2)
EC50 (human CRF2a receptor): 0.27 nM
Emax (% I) (CFR1R receptor): 32 % I
EC50 (CFR1R receptor): > 250 nM
Systolic blood pressure (Mean) % change from baseline, 8 h (Sprague Dawley rats): −17%
Systolic blood pressure (Mean) % change from baseline, 12 h (Sprague Dawley rats): −14%
Systolic blood pressure (Mean) % change from baseline, 24 h (Sprague Dawley rats): −11%
Duration of action (Sprague Dawley rats): >24 h

CC[C@H](C)[C@H](NC(C)=O)C(=O)N[C@H](C(=O)N[C@@H](CC(C)C)C(=O)N[C@@H](CO)C(=O)N[C@@H](CC(C)C)C(=O)N[C@@H](CC(=O)O)C(=O)N[C@@H](C(=O)N1CCC[C@H]1C(=O)N[C@H](C(=O)N[C@@H](CCCCN)C(=O)N[C@@H](CC(C)C)C(=O)N[C@@H](CCCCNC(=O)CC[C@H](NC(=O)CCCCCCCCCCCCCCCCCCC(=O)O)C(=O)O)C(=O)N[C@@H](CCCCN)C(=O)N[C@H](C(=O)N[C@@H](CC(C)C)C(=O)N[C@@H](CC(C)C)C(=O)N[C@@H](CCC(=O)O)C(=O)N[C@@H](CCC(N)=O)C(=O)N[C@@H](CCC(=O)O)C(=O)N[C@@H](CCCCN)C(=O)N[C@@H](CCC(N)=O)C(=O)N[C@@H](CCCCN)C(=O)NC(C)(C)C(=O)N[C@@H](CCC(N)=O)C(=O)N[C@@H](CCCNC(=N)N)C(=O)N[C@@H](CCC(=O)O)C(=O)N[C@@H](CCC(N)=O)C(=O)N[C@@H](C)C(=O)N[C@@H](CCC(=O)O)C(=O)N[C@H](C(=O)N[C@@H](CC(N)=O)C(=O)NC(C)(C)C(=O)N[C@@H](CCC(N)=O)C(=O)N[C@H](C(=O)N[C@@H](CC(C)C)C(=O)N[C@@H](C)C(=O)N[C@@H](CCC(N)=O)C(=O)N[C@H](C(N)=O)C(C)C)[C@@H](C)CC)[C@@H](C)O)[C@@H](C)CC)[C@@H](C)CC)C(C)C)C(C)C [compound 209] (Ac-IVLSLD[dV]PIKLK([γGlu-C20 diacid])KILLEQEKQK[Aib]QREQAETN[Aib]QILAQV-NH2)
EC50 (human CRF2a receptor): 0.22 nM
Emax (% I) (CFR1R receptor): 21 % I
EC50 (CFR1R receptor): > 250 nM
Systolic blood pressure (Mean) % change from baseline, 8 h (Sprague Dawley rats): −18%
Systolic blood pressure (Mean) % change from baseline, 12 h (Sprague Dawley rats): −11%
Systolic blood pressure (Mean) % change from baseline, 24 h (Sprague Dawley rats): 3%
Duration of action (Sprague Dawley rats): 23 h

CC[C@H](C)[C@H](NC(C)=O)C(=O)N[C@H](C(=O)N[C@@H](CC(C)C)C(=O)N[C@@H](CO)C(=O)N[C@@H](CC(C)C)C(=O)N[C@@H](CC(=O)O)C(=O)N[C@@H](C(=O)N1CCC[C@H]1C(=O)N[C@H](C(=O)N[C@@H](CCCCN)C(=O)N[C@@H](CC(C)C)C(=O)N[C@@H](CCCCNC(=O)CC[C@H](NC(=O)CCCCCCCCCCCCCCC(=O)O)C(=O)O)C(=O)N[C@@H](CCCCN)C(=O)N[C@H](C(=O)N[C@@H](CC(C)C)C(=O)N[C@@H](CC(C)C)C(=O)N[C@@H](CCC(=O)O)C(=O)N[C@@H](CCC(N)=O)C(=O)N[C@@H](CCC(=O)O)C(=O)N[C@@H](CCCCN)C(=O)N[C@@H](CCC(N)=O)C(=O)N[C@@H](CCCCN)C(=O)N[C@@H](CCCCN)C(=O)N[C@@H](CCC(N)=O)C(=O)N[C@@H](CCCNC(=N)N)C(=O)N[C@@H](CCC(=O)O)C(=O)N[C@@H](CCC(N)=O)C(=O)N[C@@H](C)C(=O)N[C@@H](CCC(=O)O)C(=O)N[C@H](C(=O)N[C@@H](CC(N)=O)C(=O)N[C@@H](CCC(=O)O)C(=O)N[C@@H](CCC(N)=O)C(=O)N[C@H](C(=O)N[C@@H](CC(C)C)C(=O)N[C@@H](C)C(=O)N[C@@H](CCC(N)=O)C(=O)N[C@H](C(N)=O)C(C)C)[C@@H](C)CC)[C@@H](C)O)[C@@H](C)CC)[C@@H](C)CC)C(C)C)C(C)C [SEQ ID No. 56, reference compound] (Ac-IVLSLD[dV]PIKLK([γGlu-C16 diacid])KILLEQEKQKKQREQAETNEQILAQV-NH2)
Emax (% I) (CFR1R receptor; listed as 10): 26 % I
Systolic blood pressure (Mean) % change from baseline, 8 h (Sprague Dawley rats): −24%
Systolic blood pressure (Mean) % change from baseline, 12 h (Sprague Dawley rats): −11%
Systolic blood pressure (Mean) % change from baseline, 24 h (Sprague Dawley rats): 2%
Duration of action (Sprague Dawley rats): 18 h
